Counter-ions that a name gives are not always drawn. Like-named read-outs stand apart in the source and are kept apart here.
Key:
Cryptosporidium parvum = assay: qRT-PCR assay of the growth of C. parvum in vitro in HCT-8 host cells (primary and secondary screening, EC50); type: cell-based; conditions: Cryptosporidium parvum, HCT-8; for inhibition at 10 µM: primary screening at 10 uM, read-out: Inhibition (%); for inhibition at 3.3 µM: secondary screening at 3.3 uM, read-out: % Inhibition (3.3 uM)
[1] = primary screening at 10 uM, treated vs control

Hs18S ΔCT (HCT-8 host cells (Hs18S); human, 41 h, 10 μM) | SMILES | cytotoxicity at 41 h, 10 µM (in vitro; human) [%] | inhibition at 10 µM (Cryptosporidium parvum) [%] | cytotoxicity at 10 µM (in vitro) [%] | Hs18S ΔCT (HCT-8 host cells (Hs18S); [1]) | cytotoxicity at 41 h, 10 µM (in vitro) [%] | inhibition at 3.3 µM (Cryptosporidium parvum) [%]
-0.39 | CC(C)=CCc1c(O)cc2oc(C)cc(=O)c2c1O [PEUCENIN] | -31.3 | 2.08 | – | – | – | –
-0.15 | O=C(CCc1ccc(O)cc1)c1c(O)cc(O)cc1O [PHLORETIN] | -10.8 | -5.73 | – | – | – | –
-0.08 | O=C(CCc1ccc(O)cc1)c1c(O)cc(O)cc1O[C@@H]1O[C@H](CO)[C@@H](O)[C@H](O)[C@H]1O [PHLORIDZIN] | -5.8 | 28.9 | – | – | – | –
– | COc1cc(O)c2c(c1)C(=O)c1cc(C)cc(O)c1C2=O [PHYSCION] | – | -57.5 | 12.9 | 0.20 | – | –
– | CNC(=O)Oc1ccc2c(c1)[C@]1(C)CCN(C)[C@@H]1N2C [PHYSOSTIGMINE SALICYLATE] | – | -4.89 | -8.6 | -0.12 | – | –
-0.36 | OC[C@H]1O[C@@H](Oc2cc(O)cc(/C=C/c3ccc(O)cc3)c2)[C@H](O)[C@@H](O)[C@@H]1O [PICEID] | -28.7 | 4.1 | – | – | – | –
– | COc1cc([C@@H]2c3cc4c(cc3[C@H](O)[C@H]3COC(=O)[C@@H]23)OCO4)cc(OC)c1OC [PICROPODOPHYLLIN] | – | 79.4 | – | 0.94 | 47.8 | 56
– | CC(C)(O)[C@@H]1[C@H]2OC(=O)[C@@H]1[C@]1(O)C[C@H]3O[C@]34C(=O)O[C@H]2[C@]14C [PICROTIN] | – | -1.94 | -14.8 | -0.20 | – | –
– | C=C(C)[C@@H]1[C@H]2OC(=O)[C@@H]1[C@]1(O)C[C@H]3O[C@]34C(=O)O[C@H]2[C@]14C [PICROTOXININ] | – | 23.1 | -75.3 | -0.81 | – | –
-0.10 | CC[C@@H]1C(=O)OC[C@@H]1Cc1cncn1C [PILOCARPINE NITRATE] | -7.3 | -30.2 | – | – | – | –
0.21 | COc1c(OC)c2occc2c2oc(=O)ccc12 [PIMPINELLIN] | 13.3 | 43.6 | – | – | – | –
– | O=C(O)/C=C/C=C/c1ccc2c(c1)OCO2 [PIPERIC ACID] | – | 0.79 | -1.7 | -0.02 | – | –
– | O=C(/C=C/C=C/c1ccc2c(c1)OCO2)N1CCCCC1 [PIPERINE] | – | -12.1 | 2.1 | 0.03 | – | –
– | O=C(O)c1ccc2c(c1)OCO2 [PIPERONYLIC ACID] | – | 30.3 | -3.1 | -0.04 | – | –
– | COc1cc(/C=C/C(=O)N2CCC=CC2=O)cc(OC)c1OC [PIPLARTINE] | – | 73.7 | 20.5 | 0.33 | – | 10
– | O=C(O)[C@@H](O)[C@](O)(Cc1ccc(O)cc1)C(=O)O [PISCIDIC ACID] | – | -5.12 | -1.7 | -0.03 | – | –
-0.59 | CC(C)=CCOc1cc2oc(=O)ccc2cc1O [PRENYLETIN] | -50 | -6.72 | – | – | – | –
– | COC(=O)[C@]1(C)CC[C@]2(C)CC[C@]3(C)C4=CC=C5C(=CC(=O)C(O)=C5C)[C@]4(C)CC[C@@]3(C)[C@@H]2C1 [PRISTIMERIN] | – | 94.7 | 31.6 | 0.55 | – | 30
0.00 | C=CC1=C(C)c2cc3[nH]c(cc4nc(cc5[nH]c(cc1n2)c(C)c5CCC(=O)O)C(CCC(=O)O)=C4C)c(C)c3C=C [PROTOPORPHYRIN IX] | -0.1 | -20.6 | – | – | – | –
-0.13 | CC1=CCc2c(cc3oc(C)cc(=O)c3c2O)OC1 [PTAEROXYLIN] | -9.7 | -20.7 | – | – | – | –
– | O=c1c(-c2ccc(O)cc2)coc2c([C@@H]3O[C@H](CO)[C@@H](O)[C@H](O)[C@H]3O)c(O)ccc12 [PUERARIN] | -37.4 | -23 | – | -0.46 | – | –
– | O=C1c2ccccc2C(=O)c2c(O)c(O)cc(O)c21 [PURPURIN] | -14.3 | -37.2 | – | -0.19 | – | –

SMILES | Hs18S ΔCT (HCT-8 host cells (Hs18S); human, 41 h, 10 μM) | cytotoxicity at 41 h, 10 µM (in vitro; human) [%] | inhibition at 10 µM (Cryptosporidium parvum) [%] | cytotoxicity at 10 µM (in vitro) [%] | Hs18S ΔCT (HCT-8 host cells (Hs18S); [1]) | cytotoxicity at 41 h, 10 µM (in vitro) [%] | inhibition at 3.3 µM (Cryptosporidium parvum) [%]
NCC(=O)c1ccccc1 [PHENACYLAMINE HYDROCHLORIDE] | 1.22 | 57 | 9.11 | – | – | – | –
CC1=CC(=O)c2c(O)cccc2C1=O [PLUMBAGIN] | 1.26 | 58.1 | 95.1 | – | – | – | 13
